In test [1] the test system is HepG2. The test can be described thus: Anticancer activity against human HepG2 cells assessed as cell growth inhibition. In kind it is functional, cell-based.
The subject of test [2] is Trypanosoma brucei. Briefly: Antiprotozoal activity against Trypanosoma […] STIB900 strain. The test is classed as functional, organism-based.
Test [3] can be described thus: Inhibition of Fulllength Trypanosoma brucei MetRS expressed in Escherichia coli in presence of ATP.
Test [4] is described as follows: Anticancer activity against human CRL-8155 cells assessed as cell growth inhibition. The test is classed as functional, cell-based. The conditions noted are these: CRL8155.
Test [5] has as its system Trypanosoma cruzi. The test can be described thus: Antiprotozoal activity against Trypanosoma cruzi infected in Rhesus monkey LLC-MK2 cells. In kind it is functional, organism-based.
The subject of test [6] is Trypanosoma cruzi. Briefly: Antiprotozoal activity against Trypanosoma cruzi infected in human Red blood cell. The test is classed as functional, organism-based. As to conditions: Erythrocyte.
Test [7] concerns Leishmania mexicana. The test can be described thus: Antiprotozoal activity against Leishmania mexicana infected in mouse J774 cells. In kind it is functional, organism-based.
Test [8] has as its system Trypanosoma cruzi. Briefly: Antiprotozoal activity against Trypanosoma cruzi measured after 24 hrs. In kind it is functional, organism-based.
The target in test [9] is Trypanothione reductase (Crithidia fasciculata, UniProt P39040). The test can be described thus: Inhibition of Crithidia fasciculata TryR overexpressed in escherichia coli assessed as inhibition constant.
The test system of test [10] is Leishmania donovani. The test can be described thus: Antiprotozoal activity against Leishmania donovani promastigote assessed as lethality at 10 uM relative to control. The test is classed as functional.
Test [11] deals with Trypanosoma brucei. The test can be described thus: Antiprotozoal activity against Trypanosoma brucei […] assessed as lethality at 10 uM relative to control. In kind it is functional.
Test [12] has as its system KB. The test can be described thus: Anticancer activity against human KB cells assessed as cell growth inhibition. The test is classed as functional, cell-based.
Test [13] relates to Leishmania donovani. The test can be described thus: Antiprotozoal activity against Leishmania donovani infected in mouse macrophage cell measured after 72 hrs. In kind it is functional, organism-based.
For test [14], the system named is Trypanosoma brucei. The test can be described thus: Antiprotozoal activity against Trypanosoma brucei. The test is classed as functional, organism-based.
The species entered for test [15] is Homo sapiens. Briefly: Inhibition of Superoxide dismutase (unknown origin) at 100 uM measured after 24 hrs relative to control.
Test [16] can be described thus: Inhibition of TryR (unknown origin) assessed as inhibition constant. Set-up: species or system Bacteria.
Test [17] in a line: Inhibition of TryR (unknown origin) assessed as inhibition constant by FRET assay.
Test [18] relates to Leishmania donovani. Briefly: Antiprotozoal activity against Leishmania donovani MHOM/PE/84/LC26 amastigotes infected in mouse J774.2 cells measured after 72 hrs. In kind it is functional, organism-based. As to conditions: J774.2, 72 h.
Test [19] deals with Leishmania infantum. Briefly: Antiprotozoal activity against Leishmania infantum MCAN/ES/2001/UCM-10 amastigotes infected in mouse J774.2 cells measured after 72 hrs. The test is classed as functional, organism-based. As to conditions: J774.2, 72 h.
The subject of test [20] is Bacteria. Briefly: Inhibition of TryS (unknown origin) at 10 uM relative to control.
For test [21], the system named is Trypanosoma cruzi. Briefly: Antiprotozoal activity against Trypanosoma cruzi MG strain epimastigotes. The test is classed as functional, organism-based.
Test [22] has as its system Trypanosoma cruzi. Briefly: Antiprotozoal activity against Trypanosoma cruzi JEM strain epimastigotes. The test is classed as functional, organism-based.
Test [23] concerns Trypanosoma cruzi. The test can be described thus: Antiprotozoal activity against Trypanosoma cruzi CL-B5 strain epimastigotes. In kind it is functional, organism-based.
Test [24] concerns Trypanosoma cruzi. The test can be described thus: Antiprotozoal activity against Trypanosoma cruzi CL-B5 strain amastigotes. In kind it is functional, organism-based.
Test [25] has as its target Trypanothione reductase (Trypanosoma cruzi, UniProt P28593). The test can be described thus: Inhibition of Trypanosoma cruzi TryR assessed as inhibition constant by TR assay.
For test [26], the system named is Leishmania donovani. Briefly: Antiprotozoal activity against Leishmania donovani MHOM/IN/1978/UR6 strain promastigotes assessed as parasite growth inhibition. In kind it is functional, organism-based.
Test [27] has as its system Leishmania donovani. Briefly: Antiprotozoal activity against Leishmania donovani WR555 infected in mouse liver assessed as parasite growth inhibition at 10 mg/kg relative to control. The test is classed as functional.
For test [28], the system named is Leishmania donovani. Briefly: Antiprotozoal activity against Leishmania donovani WR555 infected in mouse liver assessed as parasite growth inhibition at 15 mg/kg relative to control. The test is classed as functional.
For test [29], the system named is Leishmania donovani. The test can be described thus: Antiprotozoal activity against Leishmania donovani WR555 assessed as growth inhibition at 1 uM relative to control. In kind it is functional.
Test [30] relates to Trypanosoma brucei. The test can be described thus: Trypanocidal activity against Trypanosoma brucei K 243-As-10-3 strain. The test is classed as functional, organism-based.
In test [31] the test system is Trypanosoma brucei. Briefly: Trypanocidal activity against Trypanosoma brucei K 269 strain. In kind it is functional, organism-based.
In test [32] the test system is Trypanosoma brucei. The test can be described thus: Trypanocidal activity against Trypanosoma brucei K 243 strain. The test is classed as functional, organism-based.
The subject of test [33] is Trypanosoma brucei. Briefly: Trypanocidal activity against Trypanosoma brucei Lab 110 strain. The test is classed as functional, organism-based.
Test [34] has as its system Trypanosoma cruzi. Briefly: Antiprotozoal activity against Trypanosoma cruzi […] strain infected in mouse macrophage cell measured after 3 days. The conditions noted are these: 72 h. The test is classed as functional, organism-based.
Test [35] concerns Trypanosoma cruzi. Briefly: Antiprotozoal activity against Trypanosoma cruzi MHOM/BR/OO/Y strain infected in mouse macrophage cell measured after 3 days. As to conditions: 72 h. In kind it is functional, organism-based.
In test [36] the test system is Leishmania donovani. The test can be described thus: Antiprotozoal activity against Leishmania donovani MHOM/ET/67/L82 strain infected in mouse macrophage cell measured after 5 days. The conditions noted are these: MHOM/ET/67/L82, Macrophage, 120 h. In kind it is functional, organism-based.
Test [37] relates to Trypanosoma cruzi. Briefly: Antiprotozoal activity against Trypanosoma cruzi […]. The test is classed as functional, organism-based.
Test [38] deals with Syrian golden hamster. The test can be described thus: In vivo antiprotozoal activity against Leishmania donovani amastigotes in hamster spleen assessed as reduction of amastigotes count measured after 7 days relative to control. In kind it is functional, Mesocricetus auratus. As to conditions: time 7 day.
Test [39] concerns Trypanosoma cruzi. Briefly: Antiprotozoal activity against Trypanosoma cruzi infected in mouse assessed as survival rate at 10 mg/kg, po administered 3 times daily on day 6 and 7 then twice daily from day 8 to 12. The conditions noted are these: time 7 day. The test is classed as functional.
Test [40] has as its system MRC5. Briefly: Anticancer activity against human MRC5 cells assessed as cell growth inhibition measured after 24 hrs by MTT assay. The test is classed as functional, cell-based. The conditions noted are these: MRC5, 24 h. Background: Tetrazolium dyes change colour on reduction, which living cells bring about.
The subject of test [41] is Trypanosoma cruzi. Briefly: Antiprotozoal activity against Trypanosoma cruzi infected in mouse Peritoneal macrophage cell assessed as growth inhibition at 1.6 uM measured after 4 days relative to control. In kind it is functional. As to conditions: 96 h, time 4 day.
The test system of test [42] is Trypanosoma cruzi. Briefly: Antiprotozoal activity against Trypanosoma cruzi infected in mouse Peritoneal macrophage cell assessed as growth inhibition at 0.8 uM measured after 4 days relative to control. In kind it is functional. As to conditions: 96 h, time 4 day.

Experimental findings from ChEMBL document CHEMBL5260817, “Polyamine-based analogs and conjugates as antikinetoplastid agents” (Eur J Med Chem, 2017) are described below.

Values after ≈ are worked out from the molar mass of the structure shown.

Chain of Trypanothione reductase (Trypanosoma cruzi, UniProt P28593) (P28593 whole entry): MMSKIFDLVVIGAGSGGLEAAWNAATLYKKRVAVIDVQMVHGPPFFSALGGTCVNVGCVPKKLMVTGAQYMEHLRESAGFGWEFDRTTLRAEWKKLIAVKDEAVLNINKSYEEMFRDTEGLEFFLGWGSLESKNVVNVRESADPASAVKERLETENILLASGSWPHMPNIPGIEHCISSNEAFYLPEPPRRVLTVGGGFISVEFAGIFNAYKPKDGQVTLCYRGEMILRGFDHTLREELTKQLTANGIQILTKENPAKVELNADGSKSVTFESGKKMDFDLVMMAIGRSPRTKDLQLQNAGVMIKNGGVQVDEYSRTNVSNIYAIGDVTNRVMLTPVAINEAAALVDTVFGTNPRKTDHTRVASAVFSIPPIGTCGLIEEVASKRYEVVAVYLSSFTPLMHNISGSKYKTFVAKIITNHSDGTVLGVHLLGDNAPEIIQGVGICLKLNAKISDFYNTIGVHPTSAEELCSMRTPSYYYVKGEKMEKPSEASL
Chain of Trypanothione reductase (Crithidia fasciculata, UniProt P39040) (P39040 whole entry): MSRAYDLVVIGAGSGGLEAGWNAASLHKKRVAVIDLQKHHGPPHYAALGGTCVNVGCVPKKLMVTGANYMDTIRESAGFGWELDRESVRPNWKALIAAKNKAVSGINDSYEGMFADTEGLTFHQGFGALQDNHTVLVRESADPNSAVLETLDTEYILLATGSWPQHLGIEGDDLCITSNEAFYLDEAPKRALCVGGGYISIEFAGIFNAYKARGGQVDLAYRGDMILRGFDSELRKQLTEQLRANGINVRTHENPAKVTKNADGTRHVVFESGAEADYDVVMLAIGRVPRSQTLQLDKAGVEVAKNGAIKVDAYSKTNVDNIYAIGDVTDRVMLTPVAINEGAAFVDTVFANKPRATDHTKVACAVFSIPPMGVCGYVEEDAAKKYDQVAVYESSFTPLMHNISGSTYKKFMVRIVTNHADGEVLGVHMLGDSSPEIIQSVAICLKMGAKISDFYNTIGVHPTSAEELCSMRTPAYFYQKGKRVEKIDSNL

As usually defined, the IC50 is the concentration that inhibits the measured activity by half. As for `O=C(NCCCNCc1cc(Cl)cc(Cl)c1)Nc1ccsc1`, the IC50 in test [1] came out at 13 µM; in [2], 0.2 µM; in [3], 0.028 µM; in [4], 0.2 µM.

Take `CC(C)=CCC/C(C)=C/CNCCNC1C2CC3CC(C2)CC1C3` (configuration not stated) [SQ109]: the IC50 was found to be 0.5 µM in test [5], 80 µM in [6] and 0.01 µM in test [7].

In the case of `CCCCCCCCCCC(O)CNCCN` (configuration not stated), the IC50 in [8] stood at 31.2 µg/mL (≈ 128 µM).

One may read the Ki as the equilibrium dissociation constant of an inhibitor or competing ligand from its target. For `NCCCNCCCCNCCCNC(=O)CCc1ccc(O)c(O)c1`, the inhibition constant Ki in test [9] turned out to be 85 µM.

As for `COc1ccc2nc3cc(Cl)ccc3c(NCCNCCCNCCNc3c4ccc(Cl)cc4nc4ccc(OC)cc34)c2c1`, the Activity in [10] and in test [11] was 99% in each case.

`O=C(O)CCCCCN1CSC(=S)N(CCCCCCN2CN(CCCCCC(=O)O)CSC2=S)C1`: the IC50 in test [12] amounted to 16.1 µM; in test [13], 6.74 µM; in [14] it was 0.36 µM.

In general, inhibition refers to the drop in the measured response relative to a control, in per cent. As to `O=C(NCCCCCCNC(=O)c1cccc(O)c1O)c1cccc(O)c1O`, the inhibition in test [15] stood at 80%.

For `O=C(NCCCNCCCCNCCCNC(=O)c1cnc2cc(C(F)(F)F)ccc2c1O)c1cnc2cc(C(F)(F)F)ccc2c1O`, the inhibition constant Ki in [16] and in test [17] was 0.75 µM throughout.

Take `CN1CCCNc2c(c(=O)c2=O)NCCCN(C)CCCNc2c(c(=O)c2=O)NCCC1`: the IC50 in test [18] and in test [19] was 20 µM in each case.

In turn, `NCCCCNCCCNC(=O)CN1C(=O)Cc2c([nH]c3ccc(Br)cc23)-c2ccccc21` yielded an inhibition in test [20] of 22%.

Take `CCCCCCCCCCCCCCC(CN)NC(=O)OC(C)(C)C` (configuration not stated): the IC50 is 10 µM in test [21], 10 µM in [22], 2 µM in test [23] and 2 µM in test [24].

`CN(C)CCNc1cc(Cl)ccc1Sc1ccccc1`: the Ki in [25] is 90 µM.

The inhibition in vivo is the change of the read-out against control, counted positive when it falls. `c1ccc(CNCCCNCCCCCCCNCCCNCc2ccccc2)cc1`: the 50% inhibitory concentration (IC50) came to 18 µM in [26]; 10 µM in [30]; 10 µM in test [31]; 10 µM in test [32]; 10 µM in test [33]. Moreover, the inhibition in vivo at 10 mg/kg in test [27] came to 65%. Also, in [28], the inhibition in vivo at 15 mg/kg stood at 99.9%. The inhibition at 1 µM in test [29] came out at 77%.

As for `CC1=C(CCCCCC(=O)NCCCCNCCCNC(=O)CCCCCC2=C(C)C(=O)c3ccccc3C2=O)C(=O)c2ccccc2C1=O`, the IC50 in test [34], in test [35] and in test [36] was below 5 µM throughout.

For the compound `CCCCN(CCCC)CCCN`, in [37], the IC50 came out at 4.66 µM.

Turning to `COC(=O)/N=C(\NCCCN1CCOCC1)NC(=O)OC`, the “inhibition (INH)” value in test [38] is recorded as 80%.

On to `CN(C)CCCN1CCN(C(=O)Cc2ccccc2)CC1`, for which, in test [39], the Activity was 90%.

Regarding `Clc1ccc(CNCCCN2CCN(CCCNCc3ccc(Cl)cc3)CC2)cc1`, in test [40], the 50% inhibitory concentration (IC50) turned out to be 4.5 µM. In [41], the inhibition at 1.6 µM was found to be 95%.

As to `Clc1ccc(Sc2ccccc2)c(CNCCCN2CCN(CCCNCc3cc(Cl)ccc3Sc3ccccc3)CC2)c1`, in test [42], the inhibition at 0.8 µM came to 90%.
